Target: T1, Escherichia coli leucine-binding protein (류신-결합 단백질, LBP), wild type (WT), SEQ ID NO: 46, YFP-LBP fusion sensor (Escherichia coli, UniProt P04816)
T1 construct: made in house; host or cells: E. coli C321.ΔA (co-transformed with pEvol-CouA-RS)
Test: FRET titration, dissociation constant (Table 1), WT LBP
Conditions: 50 mM NaH2PO4, 50 mM NaCl, pH 9.0

T1 sequence (P04816 24-369): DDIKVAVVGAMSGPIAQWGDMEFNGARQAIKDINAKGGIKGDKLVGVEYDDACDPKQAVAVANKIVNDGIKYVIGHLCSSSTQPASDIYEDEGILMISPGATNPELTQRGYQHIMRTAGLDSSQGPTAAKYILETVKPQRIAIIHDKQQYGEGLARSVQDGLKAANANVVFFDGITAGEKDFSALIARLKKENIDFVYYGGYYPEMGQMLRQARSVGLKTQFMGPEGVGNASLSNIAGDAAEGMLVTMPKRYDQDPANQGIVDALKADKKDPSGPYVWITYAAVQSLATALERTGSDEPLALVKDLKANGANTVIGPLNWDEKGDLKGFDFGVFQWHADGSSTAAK

`CC(C)C[C@H](N)C(=O)O` [L-Leu, L-류신] gave a Kd of 410 nM.

Reference: patent publication KR20210021686A, “비천연 아미노산-결합 단백질, 및 이를 코딩하는 유전자가 도입된 형질전환체” (priority 2019, dated 2021)
